Results on one compound are retold here after patent publication US5057522A, “Anti-hypersensitive N2-tetrazole-β-glucuronide analog” (Merck & Co., Inc., priority 1990, dated 1991).

This experiment has as its target T1, Angiotensin II (A II) receptor (Oryctolagus cuniculus, UniProt P34976).
T1 construct: membrane preparation derived from rabbit aortae; tissue Pel-Freeze Biologicals; host or cells: rabbit aorta membrane preparation
T1 sequence (P34976 1-359): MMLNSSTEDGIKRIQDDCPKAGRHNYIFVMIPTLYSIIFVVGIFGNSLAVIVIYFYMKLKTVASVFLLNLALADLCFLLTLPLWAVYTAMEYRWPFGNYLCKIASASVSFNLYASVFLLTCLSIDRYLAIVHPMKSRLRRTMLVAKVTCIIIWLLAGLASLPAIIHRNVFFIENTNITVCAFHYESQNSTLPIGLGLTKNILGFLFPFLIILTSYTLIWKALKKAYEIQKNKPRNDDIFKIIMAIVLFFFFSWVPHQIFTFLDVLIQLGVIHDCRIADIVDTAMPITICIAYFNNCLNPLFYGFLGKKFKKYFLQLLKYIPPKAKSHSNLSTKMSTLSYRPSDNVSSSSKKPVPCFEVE
Kind of experiment: Receptor binding assay using rabbit aortae membrane preparation (displacement of 125I-Sar1 Ile8-angiotensin II; "IC50" assay). As for the experimental part: This assay is also referred to herein as the "IC50 " assay.
RECEPTOR BINDING ASSAY USING RABBIT AORTAE MEMBRANE PREPARATION
Three frozen rabbit aortae (obtained from Pel-Freeze Biologicals) were suspended in 5 mM Tris-0.25M Sucrose, pH 7.4 buffer (50 ml) homogenized, and then centrifuged. The mixture was filtered through a cheesecloth and the supernatant was centrifuged for 30 minutes at 20,000 rpm at 4° C. The pellet thus obtained was resuspended in 30 ml of 50 mM Tris-5 mM MgCl2 buffer containing 0.2% Bovine Serum Albumin and 0.2 mg/ml Bacitration and the suspension was used for 100 assay tubes. Samples tested for screening were done in duplicates. To the membrane preparation (0.25 ml) there was added ^125 I-Sar^1 Ile^8 -angiotensin II [obtained from New England Nuclear] (10 ul; 20,000 cpm) with or without the test sample and the mixture was incubated at 37° C. for 90 minutes. The mixture was then diluted with ice-cold 50 mM Tris-0.9% NaCl, pH 7.4 (4 ml) and filtered through a glass fiber filter (GF/B Whatman 2.4" diameter). The filter was soaked in scintillation cocktail (10 ml) and counted for radioactivity using Packard 2660 Tricarb liquid scintillation counter. […]
A general note: Displacement assays read how much labelled ligand stays bound in the presence of the test substance.

Regarding `CCc1nc2c(C)cc(C)nc2n1Cc1ccc(-c2ccccc2-c2nnn([C@@H]3O[C@H](C(=O)O)[C@@H](O)[C@H](O)[C@H]3O)n2)cc1` [compound (I)], the “A II antagonist activity by the IC50 assay” value is “exhibits A II antagonist activity”. Moreover, for the setting “37° C., 90 minutes, read-out: inhibitory concentration (IC50) giving 50% displacement of the total specifically bound 125I-Sar1 Ile8-angiotensin II”, the IC50 is less than 50 µM.
